The values that follow come from patent US20170296505A1, “LONG-CHAIN CARBOXYCHROMANOLS AND ANALOGS FOR USE AS ANTI-INFLAMMATORY AGENTS” (Purdue Research Foundation, priority 2008, published 2017).

Data set [1] concerns the target T1, ovine COX-1 (Ovis aries, UniProt P05979).
T1 construct: purchased Cayman Chemicals (Ann Arbor, Mich.)
T1 sequence (P05979 25-600): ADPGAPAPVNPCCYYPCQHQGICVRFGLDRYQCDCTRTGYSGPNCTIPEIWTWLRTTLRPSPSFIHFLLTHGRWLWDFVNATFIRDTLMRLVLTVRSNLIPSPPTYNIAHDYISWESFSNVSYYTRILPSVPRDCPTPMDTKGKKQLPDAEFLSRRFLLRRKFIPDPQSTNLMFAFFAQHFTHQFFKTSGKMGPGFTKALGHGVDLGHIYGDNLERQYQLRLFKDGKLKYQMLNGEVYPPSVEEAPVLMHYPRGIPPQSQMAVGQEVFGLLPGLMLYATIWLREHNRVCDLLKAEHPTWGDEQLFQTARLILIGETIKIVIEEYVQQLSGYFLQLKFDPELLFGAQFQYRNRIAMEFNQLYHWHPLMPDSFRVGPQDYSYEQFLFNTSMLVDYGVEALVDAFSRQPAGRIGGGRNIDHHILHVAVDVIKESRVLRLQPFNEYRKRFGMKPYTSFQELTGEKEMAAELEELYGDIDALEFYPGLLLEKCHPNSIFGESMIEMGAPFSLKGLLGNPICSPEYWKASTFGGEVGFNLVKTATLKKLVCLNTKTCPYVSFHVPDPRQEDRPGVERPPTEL
In words: COX-1 activity assay using purified enzyme. Type of data set: biochemical. The procedure: (§1) COX-1 and COX -2 activity assay using purified enzymes—The enzymatic reactions were performed in 0.1M Tris (pH 8.0), in the presence of 5 mM EDTA, 2 mM phenol, and 1 μM heme. […] Enzymatic reactions were initiated by addition of AA at a final concentration of 5 μM for 2 min. The reaction was stopped by addition of 0.1 M HCl. Stannous chloride in 0.1 M HCl was then added to reduce PGG2 and PGH2 to PGF2a. After addition of 0.5 vol of […] NaCl, prostaglandins formed in the reaction were extracted using 2.5 vol of ethyl acetate and the organic layer was completely dried under N2. PGF2a, and PGE2 were quantified using ELISA assays from Cayman Chemicals.

For data set [2] the following is noted: after γ-T supplementation; cited from earlier work.
Data set [3] addresses T2, COX-2 (Homo sapiens, UniProt P35354).
T2 sequence (P35354 18-604): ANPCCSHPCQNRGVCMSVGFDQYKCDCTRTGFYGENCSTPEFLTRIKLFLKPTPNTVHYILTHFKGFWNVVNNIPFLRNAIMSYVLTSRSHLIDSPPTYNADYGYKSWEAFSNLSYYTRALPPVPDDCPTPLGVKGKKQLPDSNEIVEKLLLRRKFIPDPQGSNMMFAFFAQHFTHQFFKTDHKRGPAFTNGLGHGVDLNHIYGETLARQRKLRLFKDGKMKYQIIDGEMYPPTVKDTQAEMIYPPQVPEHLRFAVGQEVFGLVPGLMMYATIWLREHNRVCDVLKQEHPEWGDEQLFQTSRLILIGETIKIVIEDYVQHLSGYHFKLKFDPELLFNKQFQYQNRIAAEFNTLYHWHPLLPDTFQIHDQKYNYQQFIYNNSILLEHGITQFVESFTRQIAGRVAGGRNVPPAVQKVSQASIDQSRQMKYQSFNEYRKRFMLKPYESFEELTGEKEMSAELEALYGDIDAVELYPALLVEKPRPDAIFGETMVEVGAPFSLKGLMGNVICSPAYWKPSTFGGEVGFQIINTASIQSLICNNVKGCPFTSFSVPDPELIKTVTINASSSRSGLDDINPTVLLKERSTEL
Briefly: COX-2 activity assay using purified enzyme. Type of data set: biochemical. On the set-up: purchased Cayman Chemicals (Ann Arbor, Mich.). The procedure: as §1

For data set [4], the target named is T3, 5-LOX (Homo sapiens, UniProt P09917).
T3 sequence (P09917 1-674): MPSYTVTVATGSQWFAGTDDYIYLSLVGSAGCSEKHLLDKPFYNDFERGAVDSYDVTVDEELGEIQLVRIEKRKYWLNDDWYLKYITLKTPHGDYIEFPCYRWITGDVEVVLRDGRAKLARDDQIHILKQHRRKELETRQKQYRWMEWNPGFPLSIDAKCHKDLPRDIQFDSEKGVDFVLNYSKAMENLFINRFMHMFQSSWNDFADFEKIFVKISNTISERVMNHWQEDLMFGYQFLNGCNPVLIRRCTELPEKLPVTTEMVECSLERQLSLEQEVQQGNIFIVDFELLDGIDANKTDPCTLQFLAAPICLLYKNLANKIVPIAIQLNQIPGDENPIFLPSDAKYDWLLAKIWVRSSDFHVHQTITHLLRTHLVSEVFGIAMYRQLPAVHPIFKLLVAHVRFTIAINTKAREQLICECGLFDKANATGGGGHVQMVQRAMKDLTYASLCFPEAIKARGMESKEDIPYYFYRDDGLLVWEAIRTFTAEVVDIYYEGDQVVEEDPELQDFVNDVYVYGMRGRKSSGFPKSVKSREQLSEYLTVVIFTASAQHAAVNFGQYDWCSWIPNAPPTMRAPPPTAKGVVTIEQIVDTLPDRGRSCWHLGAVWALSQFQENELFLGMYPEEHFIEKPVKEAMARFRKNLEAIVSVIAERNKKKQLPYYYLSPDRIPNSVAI
In words: 5-LOX activity in HL-60 cells differentiated neutrophils. Type of data set: cell-based. Details: endogenous in cells; host or cells: HL-60 cells differentiated to neutrophils.

Data set [5] has as its target T2, COX-2. Briefly: COX-2 activity in intact cells. In kind it is cell-based. On the set-up: A549 cells were pre-treated with 0.5-1 ng/mL of IL-1β- for 6 hours to induce COX-2 expression; endogenous in cells. The procedure: COX-2 activity in intact cells—A549 cells were pre-treated with 0.5-1 ng/mL of IL-1β- for 6 hours to induce COX-2 expression, then incubated with fresh medium containing vitamin E farms, metabolite-containing conditioned medium or control medium for 30 min. […] The enzyme reaction was initiated by addition of 5 μM AA for 5 min, and medium was collected and immediately frozen to −20 C. PGE2 generated was measured as an index of COX-2 activity using an EIA assay from Cayman Chemicals.

In data set [6] the test system is IL-1beta-stimulated PGE2 formation in A549 cells. Briefly: IL-1beta-stimulated PGE2 formation with or without sesamin (Table 4). In kind it is cell-based, human. The note with it: IL-1beta 2 ng/ml, 8 h; 13′-COOH 2.5 uM, sesamin 1 uM. The procedure: Briefly, A549 cells were stimulated with IL-1beta (2 ng/ml) in the presence of DMSO (ctrl, 0.1%), control with sesamin (1 uM), 13′-COOH (structure 1) at 2.5 uM, 13′-COOH with sesamin (1 uM). Basal control was cells incubated with medium without IL-1beta. Eight hours later, media were collected and PGE2 was measured by ELISA.

Data set [7] has as its system human normal CCD841CoN (CCD) colon epithelial cells. Briefly: Normal colon epithelial cell viability (MTT). In kind it is cell-based. The note with it: vs. cancer cells.
Data set [8] can be described thus: Metabolite levels after γ-T supplementation in rats. Type of data set: in vivo. The note with it: preliminary data. From the text:
One important implication of our current findings is that different bioactivity among vitamin E forms may be rooted in their distinct metabolism. To this end, long-chain carboxychromanols may contribute to in vivo anti-inflammatory effect of γ-T (3-2). […] Himmelfard et al. reported that γ-T enriched but not a-T-enriched mixed tocopherol inhibited C-reactive protein and IL-6 in kidney-dialysis patients 36).

Data set [9] deals with colon HCT116 cancer cells. Briefly: HCT116 cell growth / viability (MTT). Type of data set: cell-based, human. The procedure: FIG. 9. MTT assay data were obtained after HCT116 colon cancer cells were incubated with curcumin (Cur, 6 μM), δTE-13′-COOH (13′, 10 μM) or their combination for 72 h. *P<0.05 and ***P<0.01 indicate statistically difference between the treatments and vehicle control.
(§2) The relative cell viability as a percentage of the control was determined for control and for each concentration.
This observation supports the idea that the combination of curcumin with 13′-COOHs may offer better anticancer efficacy than either agent alone.

Data set [10] deals with sulfation of carboxychromanols. Briefly: Sulfation of carboxychromanols. The note with it: preliminary data.
Data set [11] concerns human breast MCF-7 cancer cells. Briefly: MCF-7 cell growth (MTT). Type of data set: cell-based. The note with it: 5, 10, 20 μM, over 60 hours. The procedure:
as §2

In data set [12] the test system is HCT116 colon cancer cells. In words: Apoptosis by flow cytometry. In kind it is cell-based, human. The note with it: 20 μM, 24 hours. Background: A flow cytometer gives signals particle by particle.
Data set [13] has as its system AOM/DSS-induced colon inflammation and tumorigenesis. Briefly: AOM/DSS-induced colon cancer model. The note with it: 0.025% diet. Type of data set: in vivo, Balb/c mice. The procedure:
AOM is a carcinogen and DSS administered in drinking water causes colon inflammation that promotes colon tumorigenesis. Therefore, the AOM-DSS model represents inflammation (colitis)-promoted colon cancer. In FIG. 5A, the experimental design is shown. At day 0, AOM is administered to the Balb/c mice.

Data set [14] concerns DSS-induced colitis. Briefly: DSS-induced colitis model. Type of data set: in vivo, mice.
Data set [15] has as its system HT29 colon cancer cells. In words: HT-29 cell viability (MTT). In kind it is cell-based, human. The procedure: FIG. 8. […] Relative cell viability was measured by MTT assay after cells were treated with STE-13′ at indicated concentrations and times compared with DMSO controls. […] The data are mean±SD from at least three independent experiments. *p <0.05 and **p<0.01 indicate a significant difference between treated and DMSO-control cells
Besides HT29 colon cancer cells, we also observed similar anticancer effects of δTE-13-COOH on HCT116 colon cancer cells (FIG. 4C) and MCF7 breast cancer cells (FIG. 4A).

Data set [16] has as its target T2, COX-2. In words: COX-2 inhibition with purified human enzyme (Table 3). The note with it: mean±SEM. In kind it is biochemical. On the set-up: A549 cells were pre-treated with 0.5-1 ng/mL of IL-1β- for 6 hours to induce COX-2 expression; endogenous in cells. From the text: Free radical biology & medicine 95, 190-199. Results are mean±SEM based on four or more independent experiments.

The mark [17] stands for this setting: at maximum concentration of 20 μM.
Where [18] appears, read: purified enzyme, Not inhibit: 9′ at 20 μM, acetaminophen at 250 μM.
Setting [19] is: intact cells, COX-2 pre-induced by IL-1β, 5 μM AA, read-out: IC50 COX-2 in A549 cells.
Setting [20] is: Table 2, read-out: IC50 COX-2 activity in intact cells.

`Cc1cc(O)cc2c1OC(C)(CCCC(C)CCCC(C)C(=O)O)CC2` (centres unmarked) [9′]: the “inhibition of COX-1” value in data set [1] (setting [17]) is reported as “did not inhibit”. Besides, the “IC50 COX-1” value in data set [1] (setting [18]) is listed as “Not inhibit*”. In [2], the “detection in the plasma and liver” value is given as “not”. In [3] (setting [17]), the “inhibition of COX-2” value was “did not inhibit”. The “IC50 COX-2” value in data set [3] (setting [18]) is given as “Not inhibit*”. In addition, the “estimated IC50 of 5-LOX activity” value in [4] was “low microM”. Further, the IC50 in data set [5] (setting [19]) was found to be 7 ± 2 µM.

As for `Cc1cc(O)cc2c1OC(C)(CCCC(C)CCCC(C)CCCC(C)C(=O)O)CC2` (centres unmarked) [13′, 13-(6-hydroxy-2,8-dimethylchroman-2-yl)-2,6,10-trimethyltridecanoic acid], the IC50 in data set [1] (setting [18]) is 5 ± 2 µM; in data set [3] (setting [18]), 4 ± 2 µM; in data set [5] (setting [20]), 4 ± 2 µM; in data set [5] (setting [19]), 6 ± 2 µM. The same compound registered a PGE2 in data set [6] of 3.21 ± 0.9 ng/mL. Further, in data set [7], the “sensitivity of normal cells (anti-proliferation, 24-h incubation)” value is “much less sensitive”. Besides, the “amount found in feces” value in data set [8] is reported as greater than 100 nmol/g. The “detection in the plasma and liver” value in data set [2] is on record as “significant amounts”.

For the compound `COc1cc(/C=C/C(=O)CC(=O)/C=C/c2ccc(O)c(OC)c2)ccc1O` [curcumin, reference compound], the cytotoxicity at 6 µM in [9] (Homo sapiens, HCT-116, curcumin 6 μM, δTE-13′-COOH 10 μM or their combination, 72 h, read-out: reduction of colon cancer cell viability) amounted to 35%. The sulfation of carboxychromanols result in data set [10] is reported as “inhibits sulfation”.

For the compound `C/C(=C\CC/C(C)=C/CCC1(C)CCc2cc(O)cc(C)c2O1)CC/C=C(\C)C(=O)O` (centres unmarked) [δTE-13′, (2E,6E,10E)-13-(6-hydroxy-2,8-dimethylchroman-2-yl)-2,6,10-trimethyltrideca-2,6,10-trienoic acid], the “cancer cell growth (MTT)” value in [11] is “dose-dependently inhibits”; in [9] (5, 10, 20 μM, over 60 hours), “dose-dependently inhibits”; in data set [15], “dose- and time-dependent manner”. In data set [9] (curcumin 6 μM, δTE-13′-COOH 10 μM or their combination, 72 h), the “reduction of colon cancer cell viability” value is recorded as 11-12%. Besides, the “cells in early stage apoptosis” value in data set [12] was 7.92%. Moreover, in data set [12], the “cells in late stage apoptosis” value is 22.9%. In addition, the body weight result in data set [13] is on record as “no effect”. Moreover, in data set [13], the food intake entry is recorded as “no effect”. The “decrease of total tumor multiplicity” value in data set [13] (P<0.01) was determined as 34%. Also, in [13] (P<0.05), the “decrease of large polyps” value came to 58%. In addition, the “DSS-induced inflammation (fecal bleeding)” value in data set [13] (second cycle of DSS) is listed as “significantly attenuated”. The colitis score result in data set [14] (compared to the DSS-treated control) is “significantly decreased colitis score”. Also, the “DSS-induced diarrhea and fecal bleeding” value in data set [14] (in diet) is given as “significantly mitigated”. Further, the IC50 in [5] (setting [20]) was found to be 4 ± 1 µM; in [16], 9.8 ± 2 µM.

One may read the IC50 as the concentration that inhibits the measured activity by half.
